Inconclusive results and toxic doses are left out. How the source made its calls: active means survival T/C of 150% or more; inactive means T/C below 125% in these data.
System: P388 leukemia ip, CD2F1 mice, survival T/C
Experiment: NCI In Vivo Anticancer Drug Screen. Data for tumor model P388 Leukemia (intraperitoneal) in CD2F1 (CDF1) mice
Conditions: endpoint: median survival time, higher = longer survival
Outline: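 Mice carrying the transplanted tumor received test compound or vehicle. Survival was recorded in each group, and the value is the treated-group measurement divided by that of the vehicle-treated control group.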

Measured: T/C

CCS(=O)c1ccccc1 (centres undefined)
inactive: dose: 100.0 mg/kg/injection, schedule: Q04DX002 (ip), vehicle: Klucel (hydroxypropylcellulose) (HPC) 100 % of control | dose: 200.0 mg/kg/injection, schedule: Q04DX002 (ip), vehicle: Klucel (hydroxypropylcellulose) (HPC) 100 % of control | dose: 400.0 mg/kg/injection, schedule: Q04DX002 (ip), vehicle: Klucel (hydroxypropylcellulose) (HPC) 102 % of control

CCC(c1ccc2cc(OC)ccc2c1)C(C)(C)C(=O)F (centres undefined)
inactive: dose: 25.0 mg/kg/injection, schedule: Q04DX003 (ip), vehicle: saline with Tween-80 104 % of control | dose: 33.0 mg/kg/injection, schedule: Q01DX009 (ip), vehicle: saline with Tween-80 104 % of control | dose: 50.0 mg/kg/injection, schedule: Q01DX009 (ip), vehicle: saline with Tween-80 104 % of control | dose: 50.0 mg/kg/injection, schedule: Q04DX003 (ip), vehicle: saline with Tween-80 104 % of control | dose: 75.0 mg/kg/injection, schedule: Q01DX009 (ip), vehicle: saline with Tween-80 122 % of control | dose: 100.0 mg/kg/injection, schedule: Q04DX003 (ip), vehicle: saline with Tween-80 87 % of control
